Assay results reported in US5175180A, “N-substituted N-(alpha-triazolyl-toluyl)pyrrole compounds and use for treatment of circulatory disorders” (G. D. Searle & Co., priority 1990, dated 1992).
Like-named read-outs stand apart in the source and are kept apart here.

Tests used:
[1] = target: smooth muscle angiotensin II receptor; assay: Assay A: Angiotensin II Binding Activity (displacement of 125I-angiotensin II, rat uterine membrane preparation); conditions: 50% displacement of specifically bound 125I-AII; rat uterine membranes, 25° C., 60 min, pH 7.5
Description: Compounds of the invention were tested for ability to bind to the smooth muscle angiotensin II receptor using a rat uterine membrane preparation. […] Other chemicals were obtained from Sigma Chemical Co. This assay was carried out according to the method of Douglas et al [Endocrinology, 106, 120-124 (1980)]. Rat uterine membranes were prepared from fresh tissue. All procedures were carried out at 4° C. Uteri were stripped of fat and homogenized in phosphate-buffered saline at pH 7.4 containing 5 mM EDTA. The homogenate was centrifuged at 1500×g for 20 min., and the supernatant was recentrifuged at 100,000×g for 60 min. The pellet was resuspended in buffer consisting of 2 mM EDTA and 50 mM Tris-HCl (pH 7.5) to a final protein concentration of 4 mg/ml. […] The reaction was initiated by the addition of membrane protein and the mixture was incubated at 25° C. for 60 min. The incubation was terminated with ice-cold 50 mM Tris-HCl (pH 7.5) and the mixture was filtered to separate membrane-bound labelled peptide from the free ligand. The incubation tube and filter were washed with ice-cold buffer. Filters were assayed for radioactivity in a Micromedic gamma counter. […] Specific binding was calculated as total binding minus nonspecific binding. […] Binding data were analyzed by a nonlinear least-squares curve fitting program.

[2] = target: T1, rabbit aortic rings (angiotensin II response) (Oryctolagus cuniculus, UniProt P34976); assay: Assay B: In Vitro Vascular Smooth Muscle Response for AII (aortic rings); type: cell-based, rabbit (male New Zealand white)
T1 construct: The thoracic aorta was removed, cleaned of adherent fat and connective tissue; from tissue; host or cells: thoracic aorta rings without endothelium, male New Zealand white rabbit
T1 sequence (P34976 1-359): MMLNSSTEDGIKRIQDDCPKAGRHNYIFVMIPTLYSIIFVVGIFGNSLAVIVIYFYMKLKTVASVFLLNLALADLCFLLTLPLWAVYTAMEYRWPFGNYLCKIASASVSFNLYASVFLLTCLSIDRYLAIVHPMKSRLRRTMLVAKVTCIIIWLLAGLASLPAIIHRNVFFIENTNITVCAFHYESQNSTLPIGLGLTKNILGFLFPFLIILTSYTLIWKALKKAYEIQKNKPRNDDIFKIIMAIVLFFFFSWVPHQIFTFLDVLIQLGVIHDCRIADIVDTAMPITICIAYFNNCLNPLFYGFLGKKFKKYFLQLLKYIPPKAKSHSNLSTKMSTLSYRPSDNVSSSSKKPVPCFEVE
Description: The compounds of the invention were tested for antagonist activity in rabbit aortic rings. Male New Zealand white rabbits (2-2.5 kg) were sacrificed using an overdose of pentobarbital and exsanguinated via the carotid arteries. The thoracic aorta was removed, cleaned of adherent fat and connective tissue and then cut into 3-mm ring segments. The endothelium was removed from the rings by gently sliding a rolled-up piece of filter paper into the vessel lumen. The rings were then mounted in a water-jacketed tissue bath, maintained at 37° C., between moveable and fixed ends of a stainless steel wire with the moveable end attached to an FTO3 Grass transducer coupled to a Model 7D Grass Polygraph for recording isometric force responses. The bath was filled with 20 ml of oxygenated (95% oxygen/5% carbon dioxide) Krebs solution of the following composition (mM): 130 NaCl, 15 NaHCO3, […], 1.2 NaH2 PO4, 1.2 MgSO4, 2.5 CaCl2, and 11.4 glucose. The preparations were equilibrated for one hour before approximately one gram of passive tension was placed on the rings. Angiotensin II concentration-response curves were then recorded (3×10^-10 to 1×10^-5 M). […] The effectiveness of the test compound was expressed in terms of pA2 values and were calculated according to H. O. Schild [Br. J. Pharmacol. Chemother., 2, 189-206 (1947)]. […] Each test antagonist was evaluated in aorta rings from two rabbits.

[3] = result in words, prior art; cited from earlier work
angiotensin II = conditions: result in words, prior art; cited from earlier work
[4] = test system: angiotensin II pressor response; assay: Assay C: In Vivo Intraduodenal Pressor Assay Response for AII Antagonists; set-up: species or system rat (male Sprague-Dawley); conditions: 30 mg/kg i.d., average of two rats
Description: Angiotensin II injections were then given 5, 10, 20, 30, 45, 60, 75, 90, and 120 minutes after administration of the test compound and response of arterial pressure was monitored. […] Duration of action of a test compound was defined as the time from peak percent inhibition to 50% of peak.

## CCCCc1nc(CCCC)n(Cc2ccc(-n3c(Br)ccc3-c3nnn[nH]3)cc2)n1 [Example 3, 5-[1-[4-[(3,5-di-n-butyl-1H-1,2,4-triazol-1-yl)methyl]phenyl]-5-bromo-1H-pyrrol-2-yl]-1H-tetrazole]
[1]
  IC50: 110 nM
[2]; rabbit aortic rings, 37° C., antagonist 5 min before AII challenge, two rabbits, Schild, read-out: pA2 (converted)
  Kb: 9.55 nM

## Cc1ccc(C(c2ccc(-n3cccc3)cc2)n2cncn2)cc1 (stereo not shown) [1-[(4-methylphenyl)[4-(1H-pyrrol-1-yl)phenyl]methyl]-1H-1,2,4-triazole]
[3]
  antibacterial and antifungal properties: antibacterial and antifungal properties

## CCCCc1nc(Cl)c(CC(=O)O)n1Cc1ccccc1[N+](=O)[O-] [(2-butyl-4-chloro-1-(2-nitrobenzyl)imidazole-5-acetic acid]
Angiotensin II
  angiotensin II antagonist activity: specific competitive angiotensin II antagonist activity

## CCCCc1nc(CCCC)n(Cc2ccc(-n3c(Cl)cc(Cl)c3-c3nnn[nH]3)cc2)n1 [Example 5, 5-[1-[4-[(3,5-dibutyl-1H-1,2,4-triazol-1-yl)methyl]phenyl]-3,5-dichloro-1H-pyrrol-2-yl]-1H-tetrazole]
[1]
  IC50: 52 nM
[4]; percent inhibition of AII pressor response, AII 30 ng/kg i.v., ganglion-blocked anesthetized rats
  Inhibition: 85%
[4]; time from peak percent inhibition to 50% of peak
  Duration: 75 min
[2]
  Kb: 20 nM

## CNCC(=O)N[C@@H](CCCN=C(N)N)C(=O)N[C@H](C(=O)N[C@@H](Cc1ccc(O)cc1)C(=O)N[C@H](C(=O)N[C@@H](Cc1cnc[nH]1)C(=O)N1CCC[C@H]1C(=O)N[C@@H](C)C(=O)O)C(C)C)C(C)C [Saralasin]
Angiotensin II
  angiotensin II antagonist activity: significant residual antagonist activity

## CCCCc1nc(Cl)c(CC(=O)O)n1Cc1ccccc1Cl [2-n-butyl-4-chloro-1-(2-chlorobenzyl)imidazole-5-acetic acid]
Angiotensin II
  angiotensin II antagonist activity: specific competitive angiotensin II antagonist activity
